Measured values from patent US11141411B2, “Methods of treating neurological, metabolic, and other disorders using enantiopure deuterium-enriched pioglitazone” (Poxel SA, priority 2014, dated 2021).

What was measured:
db/db mice = test: db/db mouse model of type II diabetes, 10-day daily oral dosing; assay type: in vivo; settings: daily oral gavage 10 days, h-rac-pio 30 mg/kg, vs. vehicle; for decrease of inflammatory biomarker IL-6 / decrease of inflammatory biomarker TNF-α: d-R-pio 20 mg/kg; for adiponectin: d-S-pio 20 mg/kg
Method: Body weights were measured throughout the study. Non-fasting blood glucose (10 μL by tail snip) was measured 4 hours prior to first dose, and animals were sorted and assigned to groups based on this measure. […] A terminal blood sample was collected for determination of serum levels of cholesterol, triglycerides, free fatty acids, adiponectin, serum amyloid A, and cytokines IL-6, TNF-α, and MCP-1, using standard analytical methods. Quantitative results were analyzed by statistical methods using, as appropriate, one- or two-way ANOVA or Kruskal-Wallis tests for differences followed by Sidak's, Dunnett's, or Dunn's post-test to determine differences vs. vehicle-treated control animals. All graphs were generated with GraphPad Prism version 6.0.2 (GraphPad Software, Inc., La Jolla, Calif.).

[1] = Body weight gain in male C57BL/6J mice on a standard diet; assay type: in vivo, mouse; settings: twice daily oral gavage 11 days, overall daily dose h-rac-pio 30 mg/kg, d-S-pio 15 mg/kg, d-R-pio 15 mg/kg, vs. vehicle
Method: Male C57BL/6J mice (about 28 g body weight) were acclimated singly-housed for one week to a reverse light/dark cycle with free access to water and standard maintenance diet. Animals were then handled daily for one week followed by another 7 days of twice daily dosing with vehicle (0.5% methylcellulose in water) by oral gavage. […] Body weights were measured twice daily, prior to each dosing, to adjust individual dosing volumes to actual body weights.

[2] = Pharmacokinetics in male C57BL/6 mice, oral gavage once a day for 5 days; settings: day 5, d-S-pio or d-R-pio 15 mg/kg oral gavage daily; for t1/2 d-S: elimination half-life of analyte d-S-pio; for t1/2 h-R: elimination half-life of analyte h-R-pio; for t1/2 h-R / t1/2 h-S: h-rac-pio 30 mg/kg; for t1/2 h-S: elimination half-life of analyte h-S-pio
Method: Animals were then euthanized. Plasma was separated by centrifugation and stored at −80° C. until analyzed.
Concentrations were calculated by interpolation on standard curves generated from mouse plasma samples spiked with known concentrations of the pure analytes.

Structure (SMILES)	decrease of inflammatory biomarker IL-6 (db/db mice)	decrease of inflammatory biomarker TNF-α (db/db mice)	percent body weight difference versus day 1 body weight [1]	t1/2 d-S [2] [h]	t1/2 h-R [2] [h]	t1/2 h-S [2] [h]	adiponectin (db/db mice)	insulin (db/db mice)
[2H][C@]1(Cc2ccc(OCCc3ccc(CC)cn3)cc2)SC(=O)NC1=O [d-R-pio, (R)-5-({p-[2-(5-ethyl-2-pyridyl)ethoxy]phenyl}methyl)-(5-^2H)-1,3-thiazolidine-2,4-dione]	trending	trending	did not increase percent body weight difference over vehicle	0.8	2.5	2.5	–	–
[2H][C@@]1(Cc2ccc(OCCc3ccc(CC)cn3)cc2)SC(=O)NC1=O [d-S-pio, (S)-5-({p-[2-(5-Ethyl-2-pyridyl)ethoxy]phenyl}methyl)-(5-^2H)-1,3-thiazolidine-2,4-dione]	–	–	statistically significant increase in percent body weight difference compared to dosing with vehicle	2.3	3.2	3.1	significantly increased adiponectin	–
CCc1ccc(CCOc2ccc(CC3SC(=O)NC3=O)cc2)nc1 (racemic) [h-rac-pio, rac-5-({p-[2-(5-Ethyl-2-pyridyl)ethoxy]phenyl}methyl)-1,3-thiazolidine-2,4-dione]	trending	trending	statistically significant increase in percent body weight difference compared to dosing with vehicle	–	–	–	significantly increased adiponectin	significantly decreased insulin
